# In PMC6901910, “Molecular Basis of C-30 Product Regioselectivity of Legume Oxidases Involved in High-Value Triterpenoid Biosynthesis” (Frontiers in Plant Science, 2019):
# Assays:
# Test in all cases: in vivo yeast assay, GC-MS of products
# TpCYP72A699 = target: T1, TpCYP72A699 (Trifolium pratense, UniProt A0A5P8TXT7); format: cell-based; details: beta-amyrin formed in the cell by co-expressed OSC1; L. japonicus CPR; 30°C, 4 days
# T1 construct: gene CYP72A699; full length, expressed in S. cerevisiae INVSc1 with Lotus japonicus CPR and beta-amyrin synthase OSC1
# GuCYP72A154 = target: T2, GuCYP72A154 (Glycyrrhiza uralensis, UniProt H1A988); format: cell-based; details: beta-amyrin formed in the cell by co-expressed OSC1; L. japonicus CPR; 30°C, 4 days
# T2 construct: gene CYP72A154; full length, expressed in S. cerevisiae INVSc1 with Lotus japonicus CPR and beta-amyrin synthase OSC1
# CYP72A560 = target: T3, CYP72A560 (Medicago truncatula, UniProt A0A5P8TXP5); format: cell-based; details: beta-amyrin formed in the cell by co-expressed OSC1; L. japonicus CPR; 30°C, 4 days
# T3 construct: full length, expressed in S. cerevisiae INVSc1 with Lotus japonicus CPR and beta-amyrin synthase OSC1
# LjCYP72A697 = target: T4, LjCYP72A697 (Lotus japonicus, UniProt A0A5P8TXS9); format: cell-based; details: beta-amyrin formed in the cell by co-expressed OSC1; L. japonicus CPR; 30°C, 4 days
# T4 construct: gene CYP72A697; full length, expressed in S. cerevisiae INVSc1 with Lotus japonicus CPR and beta-amyrin synthase OSC1
# CYP72A62v2 = target: T5, CYP72A62v2 (Medicago truncatula, UniProt H1A982, V149L/V398L); details: beta-amyrin formed in the cell by co-expressed OSC1; L. japonicus CPR; 30°C, 4 days; CYP72A63-based numbering
# T5 construct: full length, expressed in S. cerevisiae INVSc1 with Lotus japonicus CPR and beta-amyrin synthase OSC1
# CYP72A63 [1] = target: T6, CYP72A63 (Medicago truncatula, UniProt H1A981); format: cell-based; details: beta-amyrin formed in the cell by co-expressed OSC1; L. japonicus CPR; 30°C, 4 days
# T6 construct: full length, expressed in S. cerevisiae INVSc1 with Lotus japonicus CPR and beta-amyrin synthase OSC1
# T6 sequence (H1A981 1-524): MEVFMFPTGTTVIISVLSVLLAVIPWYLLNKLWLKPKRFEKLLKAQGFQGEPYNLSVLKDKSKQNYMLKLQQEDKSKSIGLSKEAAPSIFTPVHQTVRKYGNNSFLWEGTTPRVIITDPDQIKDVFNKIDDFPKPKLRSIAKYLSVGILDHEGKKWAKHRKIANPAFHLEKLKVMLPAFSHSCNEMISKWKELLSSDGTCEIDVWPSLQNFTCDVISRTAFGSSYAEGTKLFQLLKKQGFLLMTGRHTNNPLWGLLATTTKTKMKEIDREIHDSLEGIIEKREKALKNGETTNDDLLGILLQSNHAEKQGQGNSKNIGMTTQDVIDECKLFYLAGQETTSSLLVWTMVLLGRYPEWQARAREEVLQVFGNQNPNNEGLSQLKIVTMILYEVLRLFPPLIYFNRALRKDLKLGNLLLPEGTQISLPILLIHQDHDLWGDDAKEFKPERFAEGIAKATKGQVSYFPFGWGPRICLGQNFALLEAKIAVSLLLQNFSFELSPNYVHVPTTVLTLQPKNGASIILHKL
# GpCYP72A154 = target: T7, GpCYP72A154 (Glycyrrhiza pallidiflora, UniProt A0A5P8TXI9); format: cell-based; details: beta-amyrin formed in the cell by co-expressed OSC1; L. japonicus CPR; 30°C, 4 days
# T7 construct: gene CYP72A154; full length, expressed in S. cerevisiae INVSc1 with Lotus japonicus CPR and beta-amyrin synthase OSC1
# T7 sequence (A0A5P8TXI9 1-523): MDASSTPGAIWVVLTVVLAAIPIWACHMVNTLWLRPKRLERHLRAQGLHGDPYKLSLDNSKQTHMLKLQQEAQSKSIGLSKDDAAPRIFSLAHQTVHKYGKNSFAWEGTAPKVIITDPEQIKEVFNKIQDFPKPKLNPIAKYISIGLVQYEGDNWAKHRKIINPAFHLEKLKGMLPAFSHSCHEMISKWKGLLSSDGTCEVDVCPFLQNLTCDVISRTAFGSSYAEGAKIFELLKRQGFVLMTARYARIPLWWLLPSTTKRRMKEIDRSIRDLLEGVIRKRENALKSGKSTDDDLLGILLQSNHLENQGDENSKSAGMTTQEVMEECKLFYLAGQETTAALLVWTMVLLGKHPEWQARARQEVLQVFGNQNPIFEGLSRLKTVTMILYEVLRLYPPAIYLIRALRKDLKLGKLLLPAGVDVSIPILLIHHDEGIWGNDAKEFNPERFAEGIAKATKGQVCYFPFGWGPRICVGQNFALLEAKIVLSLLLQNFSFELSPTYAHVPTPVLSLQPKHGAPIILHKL
# GgCYP72A154 = target: T8, GgCYP72A154 (Glycyrrhiza glabra, UniProt A0A5P8TXJ1); format: cell-based; details: beta-amyrin formed in the cell by co-expressed OSC1; L. japonicus CPR; 30°C, 4 days
# T8 construct: gene CYP72A154; full length, expressed in S. cerevisiae INVSc1 with Lotus japonicus CPR and beta-amyrin synthase OSC1
# T8 sequence (A0A5P8TXJ1 1-523): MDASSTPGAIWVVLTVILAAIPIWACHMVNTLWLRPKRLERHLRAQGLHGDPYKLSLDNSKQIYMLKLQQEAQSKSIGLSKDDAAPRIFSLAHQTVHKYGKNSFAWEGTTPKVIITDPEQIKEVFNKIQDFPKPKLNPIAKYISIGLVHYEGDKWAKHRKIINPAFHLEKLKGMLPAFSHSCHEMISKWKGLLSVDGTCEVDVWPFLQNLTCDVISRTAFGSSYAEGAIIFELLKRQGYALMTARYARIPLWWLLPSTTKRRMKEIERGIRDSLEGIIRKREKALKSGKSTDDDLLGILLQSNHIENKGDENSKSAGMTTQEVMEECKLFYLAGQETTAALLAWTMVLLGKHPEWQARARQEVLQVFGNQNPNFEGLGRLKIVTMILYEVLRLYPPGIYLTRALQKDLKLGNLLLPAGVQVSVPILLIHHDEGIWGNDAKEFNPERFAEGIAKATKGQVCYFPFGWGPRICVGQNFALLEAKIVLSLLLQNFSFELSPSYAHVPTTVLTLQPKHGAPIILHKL
# CYP72A61v2 = target: T9, CYP72A61v2 (Medicago truncatula, UniProt H1A980); format: cell-based; details: beta-amyrin formed in the cell by co-expressed OSC1; L. japonicus CPR; 30°C, 4 days
# T9 construct: full length, expressed in S. cerevisiae INVSc1 with Lotus japonicus CPR and beta-amyrin synthase OSC1
# VaCYP72A694 = target: T10, VaCYP72A694 (Vigna angularis, UniProt A0A5P8TXJ3); format: cell-based; details: beta-amyrin formed in the cell by co-expressed OSC1; L. japonicus CPR; 30°C, 4 days
# T10 construct: gene CYP72A694; full length, expressed in S. cerevisiae INVSc1 with Lotus japonicus CPR and beta-amyrin synthase OSC1
# CYP72A559 = target: T11, CYP72A559 (Medicago truncatula, UniProt A0A5P8TXY6); format: cell-based; details: beta-amyrin formed in the cell by co-expressed OSC1; L. japonicus CPR; 30°C, 4 days
# T11 construct: full length, expressed in S. cerevisiae INVSc1 with Lotus japonicus CPR and beta-amyrin synthase OSC1
# T11 sequence (A0A5P8TXY6 1-518): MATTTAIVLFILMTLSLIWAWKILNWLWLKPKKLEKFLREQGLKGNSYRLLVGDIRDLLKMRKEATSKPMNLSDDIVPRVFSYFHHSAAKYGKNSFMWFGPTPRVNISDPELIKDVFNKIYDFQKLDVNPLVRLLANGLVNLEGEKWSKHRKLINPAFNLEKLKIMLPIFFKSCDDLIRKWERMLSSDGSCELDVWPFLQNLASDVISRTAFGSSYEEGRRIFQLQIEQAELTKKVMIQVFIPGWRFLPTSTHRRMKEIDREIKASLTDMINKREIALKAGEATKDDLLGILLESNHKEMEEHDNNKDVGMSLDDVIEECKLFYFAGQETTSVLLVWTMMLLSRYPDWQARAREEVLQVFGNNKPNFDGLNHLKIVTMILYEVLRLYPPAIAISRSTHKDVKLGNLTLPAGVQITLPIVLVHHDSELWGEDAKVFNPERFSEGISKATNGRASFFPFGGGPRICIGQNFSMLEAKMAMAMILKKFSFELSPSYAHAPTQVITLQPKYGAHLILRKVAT
# CYP72A63 [2] = target: T12, CYP72A63 (Medicago truncatula, UniProt H1A981, L149V/L398V); format: cell-based; details: beta-amyrin formed in the cell by co-expressed OSC1; L. japonicus CPR; 30°C, 4 days
# T12 construct: full length, expressed in S. cerevisiae INVSc1 with Lotus japonicus CPR and beta-amyrin synthase OSC1
# Gmax CYP72A141 = target: T13, Gmax CYP72A141 (Glycine max, UniProt A0A5P8TY68); format: cell-based; details: beta-amyrin formed in the cell by co-expressed OSC1; L. japonicus CPR; 30°C, 4 days
# T13 construct: full length, expressed in S. cerevisiae INVSc1 with Lotus japonicus CPR and beta-amyrin synthase OSC1
# CYP72A66v2 = target: T14, CYP72A66v2 (Medicago truncatula, UniProt A0A5P8TY60); format: cell-based; details: beta-amyrin formed in the cell by co-expressed OSC1; L. japonicus CPR; 30°C, 4 days
# T14 construct: full length, expressed in S. cerevisiae INVSc1 with Lotus japonicus CPR and beta-amyrin synthase OSC1
# PvCYP72A302 = target: T15, PvCYP72A302 (Phaseolus vulgaris, UniProt A0A5P8TXN3); format: cell-based; details: beta-amyrin formed in the cell by co-expressed OSC1; L. japonicus CPR; 30°C, 4 days
# T15 construct: gene CYP72A302; full length, expressed in S. cerevisiae INVSc1 with Lotus japonicus CPR and beta-amyrin synthase OSC1
# T15 sequence (A0A5P8TXN3 entry or part of it): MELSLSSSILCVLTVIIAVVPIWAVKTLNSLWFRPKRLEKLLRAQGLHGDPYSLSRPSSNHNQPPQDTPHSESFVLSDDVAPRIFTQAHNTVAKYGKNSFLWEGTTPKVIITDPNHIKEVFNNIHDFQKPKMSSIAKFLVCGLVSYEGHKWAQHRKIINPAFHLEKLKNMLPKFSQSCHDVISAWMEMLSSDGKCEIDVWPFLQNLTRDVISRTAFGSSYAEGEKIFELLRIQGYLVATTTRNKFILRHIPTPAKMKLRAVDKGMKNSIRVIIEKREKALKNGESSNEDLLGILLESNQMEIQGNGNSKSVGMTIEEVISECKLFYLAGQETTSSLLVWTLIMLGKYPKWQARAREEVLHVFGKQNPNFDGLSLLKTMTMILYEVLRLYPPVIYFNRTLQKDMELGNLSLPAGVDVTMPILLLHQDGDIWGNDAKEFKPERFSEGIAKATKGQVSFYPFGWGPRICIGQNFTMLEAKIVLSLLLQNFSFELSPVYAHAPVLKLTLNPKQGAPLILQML
# T1 sequence (A0A5P8TXT7 entry or part of it): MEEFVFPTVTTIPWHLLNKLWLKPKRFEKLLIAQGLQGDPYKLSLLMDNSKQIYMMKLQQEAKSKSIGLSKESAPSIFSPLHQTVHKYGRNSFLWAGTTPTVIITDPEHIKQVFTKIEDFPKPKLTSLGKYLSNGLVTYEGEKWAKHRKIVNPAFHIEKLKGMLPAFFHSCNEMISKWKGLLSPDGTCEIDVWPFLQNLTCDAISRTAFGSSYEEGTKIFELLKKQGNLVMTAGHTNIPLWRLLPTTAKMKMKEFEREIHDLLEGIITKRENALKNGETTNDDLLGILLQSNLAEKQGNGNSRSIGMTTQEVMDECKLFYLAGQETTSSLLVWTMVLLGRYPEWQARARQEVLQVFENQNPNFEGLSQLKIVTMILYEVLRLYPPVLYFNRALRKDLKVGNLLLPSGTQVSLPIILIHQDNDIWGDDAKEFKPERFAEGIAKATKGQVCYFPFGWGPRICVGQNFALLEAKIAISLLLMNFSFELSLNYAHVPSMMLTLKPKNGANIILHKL
# T14 sequence (A0A5P8TY60 entry or part of it): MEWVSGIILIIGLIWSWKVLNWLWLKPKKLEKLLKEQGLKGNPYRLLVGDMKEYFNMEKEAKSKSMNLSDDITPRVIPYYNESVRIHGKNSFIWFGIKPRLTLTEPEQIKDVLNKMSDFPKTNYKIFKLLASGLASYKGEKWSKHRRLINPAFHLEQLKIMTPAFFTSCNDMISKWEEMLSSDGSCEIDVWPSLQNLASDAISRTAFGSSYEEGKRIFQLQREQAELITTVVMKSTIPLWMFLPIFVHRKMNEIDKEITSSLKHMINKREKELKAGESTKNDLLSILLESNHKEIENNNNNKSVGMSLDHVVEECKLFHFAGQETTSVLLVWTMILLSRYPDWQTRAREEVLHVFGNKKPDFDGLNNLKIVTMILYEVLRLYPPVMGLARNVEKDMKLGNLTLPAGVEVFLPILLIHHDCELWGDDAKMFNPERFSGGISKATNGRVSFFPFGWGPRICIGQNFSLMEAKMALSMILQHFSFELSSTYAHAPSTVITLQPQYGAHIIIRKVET
# T2 sequence (H1A988 whole entry): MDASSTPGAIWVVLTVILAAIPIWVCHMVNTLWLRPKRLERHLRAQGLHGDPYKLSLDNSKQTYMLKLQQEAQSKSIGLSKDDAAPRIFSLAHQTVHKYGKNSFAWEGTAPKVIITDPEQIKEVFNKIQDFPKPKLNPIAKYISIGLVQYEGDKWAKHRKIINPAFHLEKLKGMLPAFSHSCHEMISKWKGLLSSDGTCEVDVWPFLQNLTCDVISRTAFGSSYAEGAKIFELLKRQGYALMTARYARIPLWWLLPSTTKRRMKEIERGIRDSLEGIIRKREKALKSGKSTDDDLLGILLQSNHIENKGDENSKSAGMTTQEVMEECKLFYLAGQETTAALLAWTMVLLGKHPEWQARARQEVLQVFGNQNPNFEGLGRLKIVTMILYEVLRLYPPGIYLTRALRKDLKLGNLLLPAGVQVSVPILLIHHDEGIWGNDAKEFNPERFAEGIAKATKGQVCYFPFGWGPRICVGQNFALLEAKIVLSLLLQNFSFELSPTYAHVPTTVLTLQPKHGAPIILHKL
# T3 sequence (A0A5P8TXP5 1-518): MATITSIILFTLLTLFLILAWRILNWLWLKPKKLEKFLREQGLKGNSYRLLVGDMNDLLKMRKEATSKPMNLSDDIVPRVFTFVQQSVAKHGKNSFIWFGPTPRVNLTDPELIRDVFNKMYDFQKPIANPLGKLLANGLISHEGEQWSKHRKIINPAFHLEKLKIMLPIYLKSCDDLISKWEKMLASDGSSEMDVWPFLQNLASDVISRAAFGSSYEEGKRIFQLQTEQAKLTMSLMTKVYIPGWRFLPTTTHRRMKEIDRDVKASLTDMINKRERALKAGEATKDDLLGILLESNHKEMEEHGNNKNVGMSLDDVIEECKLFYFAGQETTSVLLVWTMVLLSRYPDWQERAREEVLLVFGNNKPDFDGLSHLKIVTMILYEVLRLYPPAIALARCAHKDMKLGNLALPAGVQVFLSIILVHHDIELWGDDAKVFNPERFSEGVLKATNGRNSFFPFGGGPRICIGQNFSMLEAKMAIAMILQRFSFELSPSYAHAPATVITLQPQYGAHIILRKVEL
# T4 sequence (A0A5P8TXS9 entry or part of it): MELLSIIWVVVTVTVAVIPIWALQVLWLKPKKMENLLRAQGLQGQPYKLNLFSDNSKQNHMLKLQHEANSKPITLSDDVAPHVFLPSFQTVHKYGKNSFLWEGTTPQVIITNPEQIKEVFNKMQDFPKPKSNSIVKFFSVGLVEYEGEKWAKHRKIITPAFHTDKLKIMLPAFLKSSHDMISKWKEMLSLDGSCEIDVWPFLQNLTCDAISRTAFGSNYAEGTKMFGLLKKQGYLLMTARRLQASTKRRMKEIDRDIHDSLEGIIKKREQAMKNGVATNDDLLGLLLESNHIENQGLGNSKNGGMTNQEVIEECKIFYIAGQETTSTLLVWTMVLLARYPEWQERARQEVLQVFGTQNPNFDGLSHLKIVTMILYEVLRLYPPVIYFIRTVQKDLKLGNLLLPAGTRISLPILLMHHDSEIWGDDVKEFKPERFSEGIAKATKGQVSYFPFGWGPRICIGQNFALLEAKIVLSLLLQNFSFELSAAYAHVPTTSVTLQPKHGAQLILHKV
# T10 sequence (A0A5P8TXJ3 entry or part of it): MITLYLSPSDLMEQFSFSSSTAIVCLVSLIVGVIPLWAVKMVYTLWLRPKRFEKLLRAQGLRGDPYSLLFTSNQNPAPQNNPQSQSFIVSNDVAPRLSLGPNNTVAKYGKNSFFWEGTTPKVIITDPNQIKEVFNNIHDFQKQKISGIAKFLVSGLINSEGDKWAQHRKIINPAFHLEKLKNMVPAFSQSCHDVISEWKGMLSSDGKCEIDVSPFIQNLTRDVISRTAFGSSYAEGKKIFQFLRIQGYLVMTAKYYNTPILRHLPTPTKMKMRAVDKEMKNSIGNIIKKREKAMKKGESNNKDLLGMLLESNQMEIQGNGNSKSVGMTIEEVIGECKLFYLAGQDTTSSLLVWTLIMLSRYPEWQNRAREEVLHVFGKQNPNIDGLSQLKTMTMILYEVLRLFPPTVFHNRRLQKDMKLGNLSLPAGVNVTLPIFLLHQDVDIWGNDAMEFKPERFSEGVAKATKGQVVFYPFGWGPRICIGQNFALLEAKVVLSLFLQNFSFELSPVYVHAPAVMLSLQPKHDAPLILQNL
# T13 sequence (A0A5P8TY68 1-520): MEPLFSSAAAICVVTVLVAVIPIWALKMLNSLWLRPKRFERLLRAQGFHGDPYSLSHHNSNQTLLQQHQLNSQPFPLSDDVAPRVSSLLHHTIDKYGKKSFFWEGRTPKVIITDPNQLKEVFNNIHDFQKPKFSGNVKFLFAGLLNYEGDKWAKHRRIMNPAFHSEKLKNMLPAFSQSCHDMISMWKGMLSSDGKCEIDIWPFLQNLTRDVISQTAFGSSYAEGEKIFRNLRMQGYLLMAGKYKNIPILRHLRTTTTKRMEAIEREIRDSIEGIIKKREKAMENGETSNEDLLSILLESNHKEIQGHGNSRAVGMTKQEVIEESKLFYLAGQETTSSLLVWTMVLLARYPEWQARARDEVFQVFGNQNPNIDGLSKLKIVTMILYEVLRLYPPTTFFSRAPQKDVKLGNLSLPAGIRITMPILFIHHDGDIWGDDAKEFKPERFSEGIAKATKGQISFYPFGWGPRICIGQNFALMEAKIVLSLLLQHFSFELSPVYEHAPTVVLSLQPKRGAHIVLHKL
# T9 sequence (H1A980 entry or part of it): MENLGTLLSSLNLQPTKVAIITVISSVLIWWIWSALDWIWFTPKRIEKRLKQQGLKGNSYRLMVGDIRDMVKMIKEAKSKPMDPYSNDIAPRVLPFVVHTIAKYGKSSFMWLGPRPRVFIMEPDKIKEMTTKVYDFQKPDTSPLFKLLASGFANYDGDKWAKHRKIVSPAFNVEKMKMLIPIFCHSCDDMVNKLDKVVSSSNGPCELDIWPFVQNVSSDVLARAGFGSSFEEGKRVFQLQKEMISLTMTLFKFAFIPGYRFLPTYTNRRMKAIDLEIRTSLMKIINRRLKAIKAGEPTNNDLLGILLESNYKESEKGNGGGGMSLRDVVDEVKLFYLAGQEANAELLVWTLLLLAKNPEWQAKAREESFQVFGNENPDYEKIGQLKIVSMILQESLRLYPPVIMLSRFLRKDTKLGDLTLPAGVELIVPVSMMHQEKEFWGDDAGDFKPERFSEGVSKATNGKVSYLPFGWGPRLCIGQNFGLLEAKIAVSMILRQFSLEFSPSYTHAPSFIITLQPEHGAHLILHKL
structure (smiles),measurement,setting,value
CC1(C)CC[C@]2(C)CC[C@]3(C)C(=CC[C@@H]4[C@@]5(C)CC[C@H](O)C(C)(C)[C@@H]5CC[C@]43C)[C@@H]2C1 [β-amyrin],"in vivo yeast assay, GC-MS of products",TpCYP72A699,regioselectivity in the C-29 position was common among them
same,"in vivo yeast assay, GC-MS of products",GuCYP72A154,GuCYP72A154 and GgCYP72A154 oxidized β-amyrin with less regioselectivity at the D or E ring
same,"in vivo yeast assay, GC-MS of products",CYP72A560,CYP72A559 and CYP72A560 showed oxidation activity against β-amyrin at the D or E ring
same,"in vivo yeast assay, GC-MS of products",LjCYP72A697,in vivo enzymatic assays showed that they have regioselectivity in the C-29 position
same,"in vivo yeast assay, GC-MS of products",CYP72A62v2,"CYP72A62v2^V149L/V398L produced only C-30 oxidized products, 30-hydroxy-β-amyrin and 11-deoxoglycyrrhetinic acid"
same,"in vivo yeast assay, GC-MS of products",CYP72A63 [1],CYP72A63 showed oxidation activity against β-amyrin at the C-30 position
same,"in vivo yeast assay, GC-MS of products",GpCYP72A154,the non-glycyrrhizin-producing species GpCYP72A154 oxidized β-amyrin
same,"in vivo yeast assay, GC-MS of products",GgCYP72A154,GuCYP72A154 and GgCYP72A154 oxidized β-amyrin with less regioselectivity at the D or E ring
same,"in vivo yeast assay, GC-MS of products",CYP72A61v2,"showed oxidation activity against β-amyrin at position C-22β, producing sophoradiol"
same,"in vivo yeast assay, GC-MS of products",VaCYP72A694,in vivo enzymatic assays showed that they have regioselectivity in the C-29 position
same,"in vivo yeast assay, GC-MS of products",CYP72A559,CYP72A559 and CYP72A560 showed oxidation activity against β-amyrin at the D or E ring
same,"in vivo yeast assay, GC-MS of products",CYP72A63 [2],CYP72A63^L149V/L398V and CYP72A63^L149V/L398I had altered product regioselectivity resembling their counterparts
same,"in vivo yeast assay, GC-MS of products",Gmax CYP72A141,in vivo enzymatic assays showed that they have regioselectivity in the C-29 position
same,"in vivo yeast assay, GC-MS of products",CYP72A66v2,β-Amyrin C-22β oxidation activity was also detected in CYP72A66v2 (subgroup III)
same,"in vivo yeast assay, GC-MS of products",PvCYP72A302,regioselectivity in the C-29 position was common among them
